In the assay the target is T1, serotonin transporter (SERT) (Rattus norvegicus, UniProt P31652).
T1 construct: 225 μl of rat cortex suspension; from tissue; host or cells: rat (Sprague Dawley) brain cortex homogenate
Briefly: Serotonin transporter assay ([3H]-citalopram binding assay). Conditions: rat cortex.

The values that follow come from article PMC5437114, “Exploring Pharmacological Mechanisms of Lavender (Lavandula angustifolia) Essential Oil on Central Nervous System Targets” (Frontiers in Pharmacology, 2017).

T1 sequence (P31652 whole entry): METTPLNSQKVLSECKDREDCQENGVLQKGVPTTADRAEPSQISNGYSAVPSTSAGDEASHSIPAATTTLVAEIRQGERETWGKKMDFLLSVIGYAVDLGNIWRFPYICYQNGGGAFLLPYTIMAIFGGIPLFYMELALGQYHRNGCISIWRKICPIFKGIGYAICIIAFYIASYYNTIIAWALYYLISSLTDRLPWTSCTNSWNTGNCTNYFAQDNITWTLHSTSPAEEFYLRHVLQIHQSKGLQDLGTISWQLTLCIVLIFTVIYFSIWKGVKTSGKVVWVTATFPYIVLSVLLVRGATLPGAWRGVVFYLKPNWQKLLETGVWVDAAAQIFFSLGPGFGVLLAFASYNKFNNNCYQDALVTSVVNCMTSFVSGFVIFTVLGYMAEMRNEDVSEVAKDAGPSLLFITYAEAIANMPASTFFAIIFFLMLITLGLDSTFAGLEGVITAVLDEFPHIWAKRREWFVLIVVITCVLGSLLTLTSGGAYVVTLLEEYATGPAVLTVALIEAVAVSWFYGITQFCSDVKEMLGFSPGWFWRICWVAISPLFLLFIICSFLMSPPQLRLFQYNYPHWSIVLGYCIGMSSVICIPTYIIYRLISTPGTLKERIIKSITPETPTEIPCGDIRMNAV

Take `C=CC(C)(O)CCC=C(C)C` (centres unmarked) [Linalool, linalool]: the “Activity in the SERT assay (displacement of 3H-citalopram), in words” value is reported as “effect was also detected”.

For `C=CC(C)(CCC=C(C)C)OC(C)=O` (centres unmarked) [Linalyl acetate, linalyl acetate], the “Activity in the SERT assay (displacement of 3H-citalopram), in words” value is given as “did not show affinity”.
